Molecules are shown by their SMILES.

This note sets out measurements from ChEMBL document CHEMBL3507680, “University of Dundee, Gates Library screen for HepG2 cell viability”.

A short description of this data set: Human HepG2 cell viability assay in 384 well format. In kind it is toxicity, cell-based. Further details: dose 125 nL, time 70.5 hour; cytotoxicity at 70.5 h: concentration not given beside the values. The following applies: HepG2 cells, read-out: Inhibition.
As to `O=C(c1cccc(Cl)c1)N1CCCC2(CCCNC2)C1` (stereo not given), the cytotoxicity at 70.5 h was -1.15%. With `Clc1nc2ccccn2c1CNCC1CN(C2CC2)CCO1` (stereo not given) the figure was 4.07%.

On to `Cc1nc(CN2C(=O)CCC23CCN(Cc2ccoc2)CC3)cs1`, for which the cytotoxicity at 70.5 h is -4.67%. For `O=S(=O)(c1ccccc1)N1CCOCC(Cc2cccnc2)C1` (stereo not given) the value was -3.24%; for `COc1ccccc1S(=O)(=O)NCC(c1cccn1C)N(C)C` (stereo not given), -2.15%. With `O=C(CSc1nnc(N2CCOCC2)s1)NCc1cccs1` the figure was -2.54%; with `C[C@]12CCCCN(C(=O)c3ccccn3)[C@H]1CCCC(=O)N2`, 5.15%; with `CCn1ncc2c1CCCC2NCc1cccc2c1OCCCO2` (stereo not given), -0.304%. With `Cc1cccc(CN2C[C@@H]3CN(C(=O)c4ccsc4)C[C@@H]3C2=O)c1` the figure was -5.57%; with `Cc1cc(CN(C)C(=O)NC2CCCC2)no1`, -7.06%. For the molecule `COCC(O)CNC(=O)Nc1ccc(Cl)cc1-n1cccc1` (stereo not given), the cytotoxicity at 70.5 h is -7.23%. For `CN1CCOC[C@H]1c1nc(-c2ccc(F)cc2F)c[nH]1` the value was -0.919%; for `O=C(Cn1cccnc1=O)NC(Cc1ccsc1)c1cccnc1` (stereo not given), -6.19%; for `COc1ccc(C2CCN(C(=O)c3ncccc3OC(C)C)C2)cc1` (stereo not given), 11.5%. For the molecule `Cc1nn(C)c(C)c1-c1nccnc1CC1CCNCC1`, the cytotoxicity at 70.5 h is -1.07%. For `Cc1nn(CC(=O)Nc2ccon2)cc1Br` the value was -10.2%; for `Cn1nc(C(=O)N2CCSCC2)cc1NC(=O)c1ccccc1`, -1.31%. On to `CN1CCN(C(=O)NCCc2ccc(F)cc2)[C@H]2CS(=O)(=O)C[C@H]21`, for which the cytotoxicity at 70.5 h is -2.69%. On to `COCCNC(=O)C[C@@H]1COC[C@H]2CN(CC3CCOCC3)C[C@@H]12`, for which the cytotoxicity at 70.5 h was found to be 1.35%.

Consider `CCCNCC1(O)CCCN(Cc2cccc(C)c2)C1=O` (stereo not given), for which the cytotoxicity at 70.5 h was -3.03%. For `CC(=O)N1CCN(C(=O)c2csc(-c3ccc(C)cc3C)n2)CC1` the value was 14.1%; for `Cc1cnc(C(=O)N2C[C@@H]3CN(CC4CCCC4)CCO[C@@H]3C2)cn1`, 25.7%. With `O=C(NCCO)Nc1cccc(Cl)c1SC(F)F` the figure was 16.9%; with `Cc1cc(C[C@@H]2COC[C@@H]2NC(=O)CN2CCOC2=O)on1`, -7.96%.

Turning to `NC(=O)c1cc(C2CCCN(C(=O)CCc3cscn3)C2)n[nH]1` (stereo not given), the cytotoxicity at 70.5 h was -11.7%. Regarding `C[C@H]1C[C@@H]2CCN(C(=O)c3ccncc3)C[C@H]2O1`, the cytotoxicity at 70.5 h is -2.95%.

Regarding `O=C(c1ccc2sccc2c1)N1CCC(C(=O)O)(n2ccnc2)CC1`, the cytotoxicity at 70.5 h turned out to be 3.47%. For `CSc1ccc(CNC(=O)C2CC(=O)N(C(C)(C)C)C2)cc1` (stereo not given) the value was -3.39%; for `O=C(NCCn1cc(Cl)cn1)C1CCN(C(=O)C2CC2)CC1`, 2.7%; for `COc1ncccc1CNC(=O)c1cc(C)on1`, -8.23%. For `Cc1ccccc1N1CCCN(CC2(O)CCCNC2)CC1` (stereo not given) the value was 20.3%; for `Cc1ccccc1C1(C(=O)NCCN(C(C)C)C(C)C)CCOCC1`, -10%. As to `CN1[C@H](Cn2cccn2)C[C@@H]2CN(C(=O)Cc3cccs3)CC[C@@H]21`, the cytotoxicity at 70.5 h came to 24.7%. On to `COCC(=O)N1C[C@@H](O)[C@H](N2CCN(c3ccccc3)CC2)C1`, for which the cytotoxicity at 70.5 h was -0.565%.

`CCCNS(=O)(=O)Cc1ccc(Br)cc1`: the cytotoxicity at 70.5 h was -7.66%.

Consider `CC(C)c1nnc(NCCS(C)(=O)=O)s1`, for which the cytotoxicity at 70.5 h is -0.429%. With `Cc1cnn(CCNCC(=O)N2CCN(c3ccccn3)CC2)c1` the figure was 8.76%. Take `CC(C(=O)N1CCN(CCOc2ccccc2)CC1)n1cncn1` (stereo not given): the cytotoxicity at 70.5 h amounted to 9.32%. With `Cc1ccccc1C(=O)N1CC[C@@H]2CN(c3ncccn3)CCO[C@@H]2C1` the figure was -10.9%; with `COc1ccc(NC(=O)c2ccc(-n3ncc(C#N)c3N)cc2)cn1`, 3.5%; with `O=C(CSC1=NS(=O)(=O)c2cc(F)ccc2N1)c1ccccc1`, -3.16%. Turning to `Cc1cc(C)c(CNC(=O)N2CCCC2c2cccc(F)c2)c(=O)[nH]1` (stereo not given), the cytotoxicity at 70.5 h is 26%. With `Cc1ccc(C(C)NCc2c(C(C)C)nn(C)c2N2CCOCC2)o1` (stereo not given), the cytotoxicity at 70.5 h is -5.88%. As to `Cc1ccn(CCC(=O)N2CCCC(Cc3cccnc3)C2)n1` (stereo not given), the cytotoxicity at 70.5 h is -5.66%. Regarding `CN(C(=O)CCc1ccsc1)S(C)(=O)=O`, the cytotoxicity at 70.5 h is 6.34%. On to `Cc1cccc(CN2CC[C@@H]3O[C@@H](C(=O)N4CCN(C)CC4)C[C@@H]32)c1`, for which the cytotoxicity at 70.5 h is -6.66%. For `O=C(c1ccc(S(=O)(=O)NCCc2ccncc2)cc1)N1CCCC1` the value was -19.6%.

`CC(C)N1C(=O)C[C@H]2[C@@H]1CCN2C(=O)c1ccco1`: the cytotoxicity at 70.5 h came out at 24.5%. Consider `Cc1cnn(CC(C)NCc2nc(-c3ccoc3)no2)c1` (stereo not given), for which the cytotoxicity at 70.5 h was determined as 38.1%. Turning to `Cc1cc(C)n(C2CN(CC(O)Cn3cccn3)C2)n1` (stereo not given), the cytotoxicity at 70.5 h is 7.73%. With `CCOc1ccc(CNC(=O)c2cnc(OC)nc2)cc1` the figure was -2.49%. `CN(Cc1ccsc1)C(=O)c1cccc(F)c1`: the cytotoxicity at 70.5 h was -9.63%. As for `Cc1ccc(N2CC[C@H]3O[C@H](C(=O)N4CCCCO4)CC[C@H]32)nn1`, the cytotoxicity at 70.5 h was -3.7%.

As to `COCCOCCNC(=O)N1CCc2c(F)ccc(F)c2C1`, the cytotoxicity at 70.5 h was found to be 2.28%.

Consider `CCc1ccc(CN2CCC3(CCCN(C(=O)c4cnccn4)C3)C2)o1` (stereo not given), for which the cytotoxicity at 70.5 h is 2.89%. For `COCCN1CCC2(C1)c1ccccc1S(=O)(=O)N2C` (stereo not given) the value was -10.1%. With `COCC(=O)N1C[C@@H](c2cc(O)nc(C)n2)[C@H](c2ccccc2F)C1` the figure was 13%; with `Cc1ccc(F)c(S(=O)(=O)NCc2[nH]ncc2Br)c1`, -10%; with `Cc1nc(N2CCOCC2)nc2c1CCN(C(=O)C1CCCCC1)CC2`, 0.0722%. On to `COc1ccsc1C(=O)NC1CCN(c2cccc(F)c2)CC1`, for which the cytotoxicity at 70.5 h amounted to 21.7%. Take `Cc1cccc(N2CCC(NC(=O)CCCc3cccs3)CC2)n1`: the cytotoxicity at 70.5 h is -2.62%. Turning to `CC(C)c1ccc(-n2cc(O)c(C(=O)O)n2)cc1`, the cytotoxicity at 70.5 h is -5.79%. With `CC(C)OCCCNC(=O)C1CCCN(c2ccc3nncn3n2)C1` (stereo not given), the cytotoxicity at 70.5 h is -9.82%. For `CNC(=O)[C@H]1C[C@@H]2CN(C(=O)NCCc3ccccc3)C[C@H]1O2` the value was -12%; for `Cc1cc(C)n(CC2CN(CC(=O)Nc3nncs3)CCO2)n1` (stereo not given), 0.137%. With `CN(Cc1cnc(N)nc1)C(=O)c1coc(COc2ccccc2)n1` the figure was -2.22%. With `CNC(C(=O)OC)c1cc(F)ccc1F` (stereo not given), the cytotoxicity at 70.5 h was -3.37%.

On to `COc1c(C2CCCN2CCOc2ccccc2C#N)c(C)nn1C` (stereo not given), for which the cytotoxicity at 70.5 h was -0.493%.

As for `CCC(CO)N(Cc1ccco1)C(=O)c1sccc1NC(C)=O` (stereo not given), the cytotoxicity at 70.5 h is -5.95%. On to `CC(=O)NCc1nnn2c1CN(c1ncc(C)cn1)CCC2`, for which the cytotoxicity at 70.5 h is -20.5%.
